From PubChem BioAssay AID2060891 (Molecular Pharmacology Branch, DTP, NCI, 2025)

System: K98450-129-R-PDC complex spheroid growth, percent test/control
Assay: Anticancer human tumor K98450-129-R-PDC patient-derived colon adenocarcinoma cell line growth inhibition [RAS]
Conditions: for IC50: curve of first compound; for viability, T/C: stronger effect = lower value
Procedure, shortened: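 Multi-cell-type spheroids: tumor cells plus HUVEC endothelial cells and mesenchymal stem cells. RAS-pathway inhibitors were combined with targeted agents, each dosed in half-log steps down from clinical Cmax, or from 10 microM when Cmax was unknown.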

[1] = second compound 0.000949 µM, first compound 0.00316 µM
[2] = second compound 0.000949 µM, first compound 0.01 µM
[3] = second compound 0.000949 µM, first compound 0.0316 µM
[4] = second compound 0.000949 µM, first compound 0.1 µM
[5] = second compound 0.000949 µM, first compound 0.316 µM
[6] = second compound 0.000949 µM, first compound 1 µM
[7] = second compound 0.003 µM, first compound 0.00316 µM
[8] = second compound 0.003 µM, first compound 0.01 µM
[9] = second compound 0.003 µM, first compound 0.0316 µM
[10] = second compound 0.003 µM, first compound 0.1 µM
[11] = second compound 0.003 µM, first compound 0.316 µM
[12] = second compound 0.003 µM, first compound 1 µM
[13] = second compound 0.00949 µM, first compound 0.00316 µM
[14] = second compound 0.00949 µM, first compound 0.01 µM
[15] = second compound 0.00949 µM, first compound 0.0316 µM
[16] = second compound 0.00949 µM, first compound 0.1 µM
[17] = second compound 0.00949 µM, first compound 0.316 µM
[18] = second compound 0.00949 µM, first compound 1 µM
[19] = second compound 0.03 µM, first compound 0.00316 µM
[20] = second compound 0.03 µM, first compound 0.01 µM
[21] = second compound 0.03 µM, first compound 0.0316 µM
[22] = second compound 0.03 µM, first compound 0.1 µM
[23] = second compound 0.03 µM, first compound 0.316 µM
[24] = second compound 0.03 µM, first compound 1 µM
[25] = second compound 0.0949 µM, first compound 0.00316 µM
[26] = second compound 0.0949 µM, first compound 0.01 µM
[27] = second compound 0.0949 µM, first compound 0.0316 µM
[28] = second compound 0.0949 µM, first compound 0.1 µM
[29] = second compound 0.0949 µM, first compound 0.316 µM
[30] = second compound 0.0949 µM, first compound 1 µM
[31] = second compound 0.3 µM, first compound 0.00316 µM
[32] = second compound 0.3 µM, first compound 0.01 µM
[33] = second compound 0.3 µM, first compound 0.0316 µM
[34] = second compound 0.3 µM, first compound 0.1 µM
[35] = second compound 0.3 µM, first compound 0.316 µM
[36] = second compound 0.3 µM, first compound 1 µM
[37] = second compound 0.000949 µM, first compound 3.16 µM
[38] = second compound 0.000949 µM, first compound 10 µM
[39] = second compound 0.003 µM, first compound 3.16 µM
[40] = second compound 0.003 µM, first compound 10 µM
[41] = second compound 0.00949 µM, first compound 3.16 µM
[42] = second compound 0.00949 µM, first compound 10 µM
[43] = second compound 0.03 µM, first compound 3.16 µM
[44] = second compound 0.03 µM, first compound 10 µM
[45] = second compound 0.0949 µM, first compound 3.16 µM
[46] = second compound 0.0949 µM, first compound 10 µM
[47] = second compound 0.3 µM, first compound 3.16 µM
[48] = second compound 0.3 µM, first compound 10 µM
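Also: spheroids exposed to agents for seven days before the viability readout.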
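For viability, T/C in this document: luminescence used as a proxy for viable cell amount.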

C=CC(=O)Nc1cc(Nc2nccc(-c3cn(C)c4ccccc34)n2)c(OC)cc1N(C)CCN(C)C + CCn1c(-c2cc(N3CCN(C)CC3)cnc2C(C)OC)c2c3cc(ccc31)-c1csc(n1)CC(NC(=O)C1CC1C)C(=O)N1CCCC(N1)C(=O)OCC(C)(C)C2 showed an IC50 (second compound 0.000949 µM) of 336 nM, an IC50 (second compound 0.003 µM) of 209 nM and an IC50 (second compound 0.00949 µM) of 89.7 nM. For the same compound, the IC50 (second compound 0.03 µM) was < 3.16 nM, the IC50 (second compound 0.0949 µM) was < 3.16 nM and the IC50 (second compound 0.3 µM) was < 3.16 nM. It also gave a viability, T/C [1] of 91.9%, a viability, T/C [2] of 89.4% and a viability, T/C [3] of 94.1%. The viability, T/C [4] was 73.6%, the viability, T/C [5] was 52.8% and the viability, T/C [6] was 22.7%. For the same compound, the viability, T/C [7] was 93%, the viability, T/C [8] was 92% and the viability, T/C [9] was 72.8%. It also gave a viability, T/C [10] of 66.8%, a viability, T/C [11] of 41.8% and a viability, T/C [12] of 13.6%. The viability, T/C [13] was 74.9%, the viability, T/C [14] was 65.2% and the viability, T/C [15] was 65.6%. It also gave a viability, T/C [16] of 49%, a viability, T/C [17] of 15.2% and a viability, T/C [18] of 8.83%. The viability, T/C [19] was 50.5%, the viability, T/C [20] was 49% and the viability, T/C [21] was 48.8%. For the same compound, the viability, T/C [22] was 18.7%, the viability, T/C [23] was 10.5% and the viability, T/C [24] was 7.69%. For the same compound, the viability, T/C [25] was 21%, the viability, T/C [26] was 18.5% and the viability, T/C [27] was 14.1%. The viability, T/C [28] was 10.6%, the viability, T/C [29] was 8.27% and the viability, T/C [30] was 7.06%. For the same compound, the viability, T/C [31] was 12.9%, the viability, T/C [32] was 11.8% and the viability, T/C [33] was 11.4%. It also gave a viability, T/C [34] of 8.91%, a viability, T/C [35] of 7.33% and a viability, T/C [36] of 7.02%.

With CC(C)NCC(C(=O)N1CCN(c2ncnc3c2C(C)CC3O)CC1)c1ccc(Cl)cc1 (stereo not drawn) + CCn1c(-c2cc(N3CCN(C)CC3)cnc2C(C)OC)c2c3cc(ccc31)-c1csc(n1)CC(NC(=O)C1CC1C)C(=O)N1CCCC(N1)C(=O)OCC(C)(C)C2 the IC50 (second compound 0.000949 µM) was > 10000 nM, the IC50 (second compound 0.003 µM) was > 10000 nM and the IC50 (second compound 0.00949 µM) was > 10000 nM. The IC50 (second compound 0.03 µM) was < 31.6 nM, the IC50 (second compound 0.0949 µM) was < 31.6 nM and the IC50 (second compound 0.3 µM) was < 31.6 nM. It also gave a viability, T/C [3] of 104%, a viability, T/C [4] of 93.3% and a viability, T/C [5] of 89.9%. The viability, T/C [6] was 73.3%, the viability, T/C [37] was 100% and the viability, T/C [38] was 89.9%. For the same compound, the viability, T/C [9] was 90.7%, the viability, T/C [10] was 80.8% and the viability, T/C [11] was 87.1%. The viability, T/C [12] was 76.5%, the viability, T/C [39] was 75.3% and the viability, T/C [40] was 79.7%. The viability, T/C [15] was 66.7%, the viability, T/C [16] was 67% and the viability, T/C [17] was 70%. The viability, T/C [18] was 74.5%, the viability, T/C [41] was 77.4% and the viability, T/C [42] was 67.5%. It also gave a viability, T/C [21] of 48.7%, a viability, T/C [22] of 44.8% and a viability, T/C [23] of 52.7%. It also gave a viability, T/C [24] of 47.7%, a viability, T/C [43] of 54.7% and a viability, T/C [44] of 46.9%. It also gave a viability, T/C [27] of 19%, a viability, T/C [28] of 24.3% and a viability, T/C [29] of 17.6%. The viability, T/C [30] was 17.8%, the viability, T/C [45] was 16.2% and the viability, T/C [46] was 11.2%. The viability, T/C [33] was 11.1%, the viability, T/C [34] was 12.6% and the viability, T/C [35] was 12.5%. For the same compound, the viability, T/C [36] was 10.1%, the viability, T/C [47] was 9.61% and the viability, T/C [48] was 7.13%.

For CC(Nc1ccc2c(c1)OCCn1cc(N3C(=O)OCC3C(F)F)nc1-2)C(N)=O (stereo not drawn) + CCn1c(-c2cc(N3CCN(C)CC3)cnc2C(C)OC)c2c3cc(ccc31)-c1csc(n1)CC(NC(=O)C1CC1C)C(=O)N1CCCC(N1)C(=O)OCC(C)(C)C2, the IC50 (second compound 0.000949 µM) was > 10000 nM, the IC50 (second compound 0.003 µM) was > 10000 nM and the IC50 (second compound 0.00949 µM) was > 10000 nM. The IC50 (second compound 0.03 µM) was < 31.6 nM, the IC50 (second compound 0.0949 µM) was < 31.6 nM and the IC50 (second compound 0.3 µM) was < 31.6 nM. For the same compound, the viability, T/C [3] was 93.6%, the viability, T/C [4] was 83.7% and the viability, T/C [5] was 86.7%. It also gave a viability, T/C [6] of 63.9%, a viability, T/C [37] of 70.4% and a viability, T/C [38] of 61.7%. For the same compound, the viability, T/C [9] was 84%, the viability, T/C [10] was 81.1% and the viability, T/C [11] was 75.2%. It also gave a viability, T/C [12] of 67.5%, a viability, T/C [39] of 68.4% and a viability, T/C [40] of 61.3%. It also gave a viability, T/C [15] of 73.8%, a viability, T/C [16] of 74.8% and a viability, T/C [17] of 60.5%. It also gave a viability, T/C [18] of 55.4%, a viability, T/C [41] of 54.8% and a viability, T/C [42] of 51%. For the same compound, the viability, T/C [21] was 38.4%, the viability, T/C [22] was 48.4% and the viability, T/C [23] was 42.3%. It also gave a viability, T/C [24] of 35.4%, a viability, T/C [43] of 33.8% and a viability, T/C [44] of 26.8%. The viability, T/C [27] was 17.5%, the viability, T/C [28] was 15.9% and the viability, T/C [29] was 16%. For the same compound, the viability, T/C [30] was 14.7%, the viability, T/C [45] was 10.8% and the viability, T/C [46] was 10.1%. The viability, T/C [33] was 10%, the viability, T/C [34] was 10.2% and the viability, T/C [35] was 9.37%. It also gave a viability, T/C [36] of 8.15%, a viability, T/C [47] of 7.17% and a viability, T/C [48] of 4.8%.

With O=C(c1ccc(F)c(F)c1Nc1ccc(I)cc1F)N1CC(O)([C@@H]2CCCCN2)C1 + CCn1c(-c2cc(N3CCN(C)CC3)cnc2C(C)OC)c2c3cc(ccc31)-c1csc(n1)CC(NC(=O)C1CC1C)C(=O)N1CCCC(N1)C(=O)OCC(C)(C)C2 the IC50 (second compound 0.000949 µM) was 118 nM, the IC50 (second compound 0.003 µM) was 64.2 nM and the IC50 (second compound 0.00949 µM) was 42.2 nM. For the same compound, the IC50 (second compound 0.03 µM) was 3.23 nM, the IC50 (second compound 0.0949 µM) was < 3.16 nM and the IC50 (second compound 0.3 µM) was < 3.16 nM. For the same compound, the viability, T/C [1] was 94.8%, the viability, T/C [2] was 92% and the viability, T/C [3] was 87.4%. It also gave a viability, T/C [4] of 57.3%, a viability, T/C [5] of 10.2% and a viability, T/C [6] of 2.95%. For the same compound, the viability, T/C [7] was 95.7%, the viability, T/C [8] was 87% and the viability, T/C [9] was 63.2%. It also gave a viability, T/C [10] of 45.8%, a viability, T/C [11] of 7.54% and a viability, T/C [12] of 2.62%. For the same compound, the viability, T/C [13] was 67.8%, the viability, T/C [14] was 60.7% and the viability, T/C [15] was 56%. For the same compound, the viability, T/C [16] was 31.1%, the viability, T/C [17] was 3.99% and the viability, T/C [18] was 2.44%. It also gave a viability, T/C [19] of 51.7%, a viability, T/C [20] of 45% and a viability, T/C [21] of 31.1%. For the same compound, the viability, T/C [22] was 6.53%, the viability, T/C [23] was 2.64% and the viability, T/C [24] was 2.51%. The viability, T/C [25] was 14.9%, the viability, T/C [26] was 10.1% and the viability, T/C [27] was 7.08%. It also gave a viability, T/C [28] of 2.95%, a viability, T/C [29] of 2.96% and a viability, T/C [30] of 2.57%. The viability, T/C [31] was 8.48%, the viability, T/C [32] was 8.02% and the viability, T/C [33] was 4.92%. The viability, T/C [34] was 2.97%, the viability, T/C [35] was 3.32% and the viability, T/C [36] was 2.59%.
